Assays:
[1] = system: GLP-1R-expressing HEK293 cells (phosphoproteome); assay: Phosphoproteomics, GLP-1R-transfected cells, 30 min (experiment 2); assay type: cell-based, human; conditions: GLP transfection, 1 μM
Method: P values were calculated by a two-sided unpaired t-test.
HEK293 cells (350,000 cells/mL) were transfected in suspension using 3 μg of linear PEI (MW 25,000) per 1 μg of plasmid DNA and seeded onto poly-D-lysine-coated 60 mm dishes at a density of 1,750,000 cells per dish. After a 24-h incubation, cells were washed twice with PBS and placed in starvation media (DMEM with penicillin/streptomycin). After a 48-h incubation, cells were washed twice with HBSS and maintained in the same buffer. […] Cell extracts were prepared as previously described[64]–[66]. In short, 200 μL of the lysis buffer preheated at 95 °C (4% sodium dodecyl sulfate in 50 mM Tris adjusted to pH 8.5) was added to the cells. The samples were then denatured at 95 °C for 10 min, placed on ice and then sonicated using a probe sonicator (3 sec on, 3 sec off pulse, 1 min, 30% amplitude) (Branson). Lysate protein concentration was determined using the Pierce bicinchoninic acid assay kit (Thermo Fisher Scientific) according to the manufacturer’s instructions. The lysates were reduced using 5 mM dithiothreitol for 1 h at room temperature and alkylated using 15 mM iodoacetamide for 1 h at room temperature in the dark. Proteins were precipitated and digested on beads using MagReSyn Amine magnetic beads (ReSyn Biosciences) according to the manufacturer’s instructions. Protein digestion was conducted overnight at 37 °C with lysyl endopeptidase (LysC, Wako) (1:150 LysC/protein, w/w) and trypsin (1:300 trypsin/protein, w/w). 20% TFA, 2 M glycolic acid in 80% ACN were added to the samples at a 1:1 ratio for phosphopeptide enrichment using MagReSyn TiO2 magnetic beads (ReSyn Biosciences) according to the manufacturer’s instructions. The enriched phosphopeptides were dried overnight in a SpeedVac, resuspended into 5% formic acid (FA), desalted using StageTip (Thermo Fisher Scientific) according to the manufacturer’s instructions and dried in a SpeedVac. The experiment was performed in biological triplicates.
All parameters and settings regarding the acquisition of the proteomics data can be found in Supplementary Data 11, 12. For data acquisition, the instrument was set to peptide mode, with a trapping pressure set as low (2mTorr). An EASY-Spray Source (Thermo Fisher Scientific) was used and the column temperature was maintained with the integrated, temperature-controlled heater at 55 °C throughout the experiment. For the data presented in Fig. 5d, the column was heated at 50 °C following the manufacturer’s instructions (IonOpticks).
Acquired raw files were converted to mzML format by MSConvert (version 3.0.21258)[67] applying peak picking of the mass spectra with the vendor-provided algorithm (Thermo Fisher Scientific). The mzML files were analyzed using the FragPipe GUI v18 for both library and DIA search. […] Trypsin with up to 2 missed cleavages was set as digestion enzyme, oxidation of methionine, acetylation of the N-terminus and phosphorylation on serine, threonine and tyrosine (maximal occurrence was set to three) were set as variable modifications. Carbamidomethylation of cysteine residues was set as a fixed modification. Peptide length was restricted to 7 to 50 amino acids, and 500 to 5000 Da. […] DIA files were analyzed by DIA-NN 1.8.1[71], [72] using the previously generated library and monitor-command mode. Peptide quantification was performed based on the fragment elution profiles from the MS2 level (area under the curve). […]

[2] = biological target: T1, GLP-1R (Homo sapiens, UniProt P43220); assay: Hierarchical / k-means / fuzzy clustering of GLP-1R agonist signaling profiles (z-scored Emax and EC50, cluster centers)
Description: Using ebBRET, we extended our pathway profiling to endosomes, the Golgi apparatus and the endoplasmic reticulum. […] In short, positive k-means cluster centers were indicative of high potency or efficacy in a specific pathway and compartment, whereas negative k-means cluster centers could be interpreted as pathways that were underrepresented or not activated by a given drug cluster (Fig. 6c).
Efficacy and potency were extracted from concentration-response curves and aggregated before k-means clustering. b Hierarchical clustering of GLP-1R agonists based on signaling neighborhood profiles. c Cluster centers of distinct drug clusters identified by k-means clustering. Defining cluster features are listed by rank order, and the top and bottom five features are highlighted for each cluster.
represented as z-scores. Pathways that were not activated by GLP-1R upon exposure to ligand
according to efficacy or potency, compartments, and pathways. Pathways that were not activated
by any drug were removed for clarity. c, Heatmap and hierarchical clustering of efficacy for 8
drugs in 15 pathways and 4 cellular compartments. Data are represented as z-scores.

[3] = biological target: T1, GLP-1R; assay: Inverted Gini coefficients for pathway selectivity (efficacy, potency) per compartment
Method: Inverted Gini coefficients depict differences in drug-induced pathway selectivity for efficacy and potency. Inverted Gini coefficients were calculated to compare the similarities among the 15 tested pathways (Gs, Gq, G11 , G14, G15, G12, G13, Gi1, Gi2, Gi3, GoA, GoB, Gz, GRK/Gb g and bARR) for efficacy (a) and potency (b) across the four compartments included in this study (PM, EE, GA, ER) where 1 represents equality and 0 represents dissimilarity.

[4] = biological target: T1, GLP-1R; assay: ebBRET pathway activation (15 transducers), normalized efficacy and potency, Supplementary Fig. 11 (cellular compartment not given); assay type: cell-based

T1 sequence (P43220 24-463): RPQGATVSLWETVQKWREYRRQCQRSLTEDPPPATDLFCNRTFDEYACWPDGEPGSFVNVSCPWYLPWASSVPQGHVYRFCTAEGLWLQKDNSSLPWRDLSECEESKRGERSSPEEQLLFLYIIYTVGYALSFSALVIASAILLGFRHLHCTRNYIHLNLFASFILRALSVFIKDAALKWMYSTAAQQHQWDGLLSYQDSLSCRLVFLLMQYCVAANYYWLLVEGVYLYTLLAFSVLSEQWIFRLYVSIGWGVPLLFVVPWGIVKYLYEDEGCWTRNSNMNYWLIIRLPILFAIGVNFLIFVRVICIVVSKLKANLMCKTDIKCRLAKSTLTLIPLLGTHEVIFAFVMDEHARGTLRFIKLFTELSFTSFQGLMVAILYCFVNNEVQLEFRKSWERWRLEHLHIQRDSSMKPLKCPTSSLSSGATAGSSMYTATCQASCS

N#Cc1ccc(COc2cccc(C3CCN(Cc4nc5ccc(C(=O)O)cc5n4C[C@@H]4CCO4)CC3)n2)c(F)c1 [Danuglipron]
log2.foldchange, PABPN1 S19 ([1]; vs time-matched vehicle, p […], n = 3): 1.128 | log2.foldchange, VPS51 S13 ([1]; vs vehicle, p 0.15884, n = 3): -0.5399 | log2.foldchange, EIF3J S20 ([1]; vs vehicle, p 0.656982, n = 3): -0.08041 | log2.foldchange, EIF3J S11 ([1]; vs vehicle, p 0.693473, n = 3): -0.5463 | log2.foldchange, VPS51 S18 ([1]; vs vehicle, p 0.842243, n = 3): 0.02396 | z-scores [2]: -0.3536 | drug cluster (hierarchical / k-means) ([2]; efficacy and potency, 15 pathways, 4 compartments): 4 | defining cluster features, in words ([2]; k-means cluster centers): endoplasmic reticulum-localized recruitment of mGs and decreased recruitment of βARR at the plasma membrane | 1 - Gini ([3]; Early endosomes, Supplementary Fig. 18a): 0.2929 | 1 - Gini ([3]; Early endosomes, Supplementary Fig. 18b): 0.7742 | 1 - Gini ([3]; Endoplasmic reticulum, Supplementary Fig. 18a): 0.09 | 1 - Gini ([3]; Endoplasmic reticulum, Supplementary Fig. 18b): 0.8902 | 1 - Gini ([3]; Golgi apparatus, Supplementary Fig. 18a): 0.1115 | 1 - Gini ([3]; Golgi apparatus, Supplementary Fig. 18b): 0.854 | 1 - Gini ([3]; Plasma membrane, Supplementary Fig. 18a): 0.403 | 1 - Gini ([3]; Plasma membrane, Supplementary Fig. 18b): 0.7941 | Efficacy (normalized), GRK2/Gβγ ([4]; Supplementary Fig. 11a, GRK2/Gβγ): 0.507 | Efficacy (normalized), Gα11 ([4]; Supplementary Fig. 11a, Gα11): 0 | Efficacy (normalized), Gα12 ([4]; Supplementary Fig. 11a, Gα12): 0 | Efficacy (normalized), Gα13 ([4]; Supplementary Fig. 11a, Gα13): 0 | Efficacy (normalized), Gα14 ([4]; Supplementary Fig. 11a, Gα14): 0.9516 | Efficacy (normalized), Gα15 ([4]; Supplementary Fig. 11a, Gα15): 0 | Efficacy (normalized), Gαi1 ([4]; Supplementary Fig. 11a, Gαi1): 0 | Efficacy (normalized), Gαi2 ([4]; Supplementary Fig. 11a, Gαi2): 0 | Efficacy (normalized), Gαi3 ([4]; Supplementary Fig. 11a, Gαi3): 0 | Efficacy (normalized), GαoA ([4]; Supplementary Fig. 11a, GαoA): 0.4649 | Efficacy (normalized), GαoB ([4]; Supplementary Fig. 11a, GαoB): 0.7256 | Efficacy (normalized), Gαq ([4]; Supplementary Fig. 11a, Gαq): 0 | Efficacy (normalized), Gαs ([4]; Supplementary Fig. 11a, Gαs): 0 | Efficacy (normalized), Gαz ([4]; Supplementary Fig. 11a, Gαz): 0.5189 | Efficacy (normalized), βARR2 ([4]; Supplementary Fig. 11a, βARR2): 0.458 | Potency (logEC50), Gα11 ([4]; Supplementary Fig. 11b, Gα11): 0 | Potency (logEC50), Gα12 ([4]; Supplementary Fig. 11b, Gα12): 0 | Potency (logEC50), Gα13 ([4]; Supplementary Fig. 11b, Gα13): 0 | Potency (logEC50), Gα14 ([4]; Supplementary Fig. 11b, Gα14): 0.7414 | Potency (logEC50), Gα15 ([4]; Supplementary Fig. 11b, Gα15): 0 | Potency (logEC50), Gαi1 ([4]; Supplementary Fig. 11b, Gαi1): 0 | Potency (logEC50), Gαi2 ([4]; Supplementary Fig. 11b, Gαi2): 0 | Potency (logEC50), Gαi3 ([4]; Supplementary Fig. 11b, Gαi3): 0 | Potency (logEC50), GαoA ([4]; Supplementary Fig. 11b, GαoA): 0.573 | Potency (logEC50), GαoB ([4]; Supplementary Fig. 11b, GαoB): 0.2577 | Potency (logEC50), Gαq ([4]; Supplementary Fig. 11b, Gαq): 0 | Potency (logEC50), Gαs ([4]; Supplementary Fig. 11b, Gαs): 0 | Potency (logEC50), Gαz ([4]; Supplementary Fig. 11b, Gαz): 0.2291 | Potency (logEC50), βARR2 ([4]; Supplementary Fig. 11b, βARR2): 0.384
